According to patent publication US8980906B2, “Pyridonemorphinan analogs and biological activity on opioid receptors” (Purdue Pharma L.P., priority 2012, dated 2015):

Tests used:
κ-opioid receptor [1] = biological target: T1, κ-opioid receptor (Homo sapiens (Human), UniProt P41145); test: κ-opioid receptor [35S]GTPγS functional assay, HEK-293 or CHO cells; format: biochemical; conditions: for Emax: relative to U69,593, HEK-293 or CHO cells
Procedure: (§1) κ-Opioid Receptor Functional Assay Procedures: Functional [^35S]GTPγS binding assays were conducted as follows. κ opioid receptor membrane solution was prepared by sequentially adding final concentrations of 0.026 μg/μl κ membrane protein (in-house), 10 μg/mL saponin, 3 μM GDP and 0.20 nM [^35S]GTPγS to binding buffer (100 mM NaCl, 10 mM MgCl2, 20 mM HEPES, pH 7.4) on ice. The prepared membrane solution (190 μl/well) was transferred to 96-shallow well polypropylene plates containing 10 μl of 20× concentrated stock solutions of agonist prepared in DMSO. Plates were incubated for 30 min at a temperature of about 25° C. with shaking. Reactions were terminated by rapid filtration onto 96-well Unifilter GF/B filter plates (Perkin Elmer, Shelton, Conn.) using a 96-well tissue harvester (Packard) and followed by three filtration washes with 200 μl ice-cold binding buffer (10 mM NaH2PO4, 10 mM Na2HPO4, pH 7.4). Filter plates were subsequently dried at 50° C. for 2-3 hours. Fifty μl/well scintillation cocktail (Perkin Elmer, Shelton, Conn.) was added and plates were counted in a Packard Top-Count for 1 min/well.
(§2) κ-Opioid Receptor Functional Data: κ GTP EC50 is the concentration of a compound providing 50% of the maximal response for the compound at a κ receptor.
(§3) κ GTP Emax (%) is the maximal effect elicited by a compound relative to the effect elicited by U69,593.
In TABLE 2, activity response of certain Compounds of the Invention to the μ-, δ- and κ-opioid receptors was determined as described above for functional assays using HEK-293 or CHO cells.

μ-opioid receptor [2] = biological target: T2, μ-opioid receptor (Homo sapiens (Human), UniProt P35372); test: μ-opioid receptor [35S]GTPγS functional assay, HEK-293 or CHO cells; format: biochemical; conditions: for Emax: relative to DAMGO, HEK-293 or CHO cells
κ-opioid receptor [3] = biological target: T1, κ-opioid receptor; test: κ-opioid receptor radioligand dose-displacement binding assay ([3H]-U69,593); conditions: binding affinity, [3H]-U69,593 displacement
Procedure: κ-Opioid Receptor Binding Assay Procedures: Membranes from HEK-293 cells, CHO or U-2 OS cells expressing the recombinant human kappa opioid receptor (κ) were prepared by lysing cells in ice cold hypotonic buffer (2.5 mM MgCl2, 50 mM HEPES, pH 7.4) (10 mL/10 cm dish) followed by homogenization with a tissue grinder/Teflon pestle. Membranes were collected by centrifugation at 30,000×g for 15 min at 4° C. and pellets were resuspended in hypotonic buffer to a final concentration of 1-3 mg/mL. Protein concentrations were determined using the BioRad protein assay reagent with bovine serum albumen as standard, Aliquots of κ receptor membranes were stored at […].
Radioligand dose displacement assays used 0.4 nM [^3H]-U69,593 (GE Healthcare, Piscataway, N.J.; 40 Ci/mmole) with 15 μg membrane protein (recombinant κ opioid receptor expressed in HEK 293 cells; in-house prep) in a final volume of 200 μl binding buffer (5% DMSO, 50 mM Trizma base, pH 7.4). Non-specific binding was determined in the presence of 10 μM unlabeled naloxone or U69,593. All reactions were performed in 96-well polypropylene plates for 1 hour at a temperature of about 25° C. Binding reactions were terminated by rapid filtration onto 96-well Unifilter GF/C filter plates (Perkin Elmer, Shelton, Conn.) presoaked in 0.5% polyethylenimine (Sigma). Harvesting was performed using a 96-well tissue harvester (Perkin Elmer, Shelton, Conn.) followed by five filtration washes with 200 μl ice-cold binding buffer. Filter plates were subsequently dried at 50° C. for 1-2 hours. Fifty μl/well scintillation cocktail (Perkin Elmer, Shelton, Conn.) was added and plates were counted in a Packard Top-Count for 1 min/well.

μ-opioid receptor [4] = biological target: T2, μ-opioid receptor; test: μ-opioid receptor radioligand dose-displacement binding assay ([3H]-diprenorphine); conditions: binding affinity, [3H]-diprenorphine displacement; read-out: Ki (nM) Opioid Receptor μ
Procedure: μ-Opioid Receptor Binding Assay Procedures: Radioligand dose-displacement binding assays for μ-opioid receptors used 0.3 nM [^3H]-diprenorphine (Perkin Elmer, Shelton, Conn.), with […] membrane protein/well in a final volume of 500 μl binding buffer (10 mM MgCl2, 1 mM EDTA, 5% DMSO, 50 mM HEPES, pH 7.4). Reactions were carried out in the absence or presence of increasing concentrations of unlabeled naloxone. All reactions were conducted in 96-deep well polypropylene plates for 2 hours at room temperature. Binding reactions were terminated by rapid filtration onto 96-well Unifilter GF/C filter plates (Perkin Elmer, Shelton, Conn.), presoaked in 0.5% polyethylenimine using a 96-well tissue harvester (Perkin Elmer, Shelton, Conn.) followed by performing three filtration washes with 500 μl of ice-cold binding buffer. Filter plates were subsequently dried at 50° C. for 2-3 hours. BetaScint scintillation cocktail (Perkin Elmer, Shelton, Conn.) was added (50 μl/well), and plates were counted using a Packard Top-Count for 1 min/well. The data were analyzed using the one-site competition curve fitting functions in GraphPad PRISM™ v. 3.0 or higher (San Diego, Calif.), or an in-house function for one-site competition curve-fitting.

κ-opioid receptor [5] = biological target: T1, κ-opioid receptor; test: κ-opioid receptor [35S]GTPγS functional assay, U-2 OS cells; format: biochemical
Procedure: as §1, §2, §3
(§4) The following TABLE 3 provides results on the activity response of certain Compounds of the Invention at the μ- and κ-opioid receptors determined as described above using U-2 OS cells.

μ-opioid receptor [6] = biological target: T2, μ-opioid receptor; test: μ-opioid receptor [35S]GTPγS functional assay, U-2 OS cells; format: biochemical
Procedure: μ-Opioid Receptor Functional Assay Procedures: [^35S]GTPγS functional assays were conducted using freshly thawed μ-receptor membranes prepared in-house from a cell line expressing recombinant μ opioid receptor in a HEK-293, CHO or U-2 OS cell background, or purchased from a commercial source (Perkin Elmer, Shelton, Conn.; or DiscovRx, Fremont, Calif.). Assay reactions were prepared by sequentially adding the following reagents to binding buffer (100 mM NaCl, 10 mM MgCl2, 20 mM HEPES, pH 7.4) on ice (final concentrations indicated): membrane protein (0.026 mg/mL), saponin ([…]), GDP ([…]) and [^35S]GTPγS (0.20 nM; Perkin Elmer, Shelton, Conn.). The prepared membrane solution (190 μl/well) was transferred to 96-shallow well polypropylene plates containing 10 μl of 20× concentrated stock solutions of the agonist [D-Ala^2, N-methyl-Phe^4 Gly-ol^5]-enkephalin (DAMGO) prepared in dimethyl sulfoxide (DMSO). Plates were incubated for 30 min at about 25° C. with shaking. Reactions were terminated by rapid filtration onto 96-well Unifilter GF/B filter plates (Perkin Elmer, Shelton, Conn.) using a 96-well tissue harvester (Perkin Elmer, Shelton, Conn.) followed by three filtration washes with 200 μl of ice-cold wash buffer (10 mM NaH2PO4, 10 mM Na2HPO4, pH 7.4). Filter plates were subsequently dried at 50° C. for 2-3 hours. BetaScint scintillation cocktail (Perkin Elmer, Shelton, Conn.) was added (50 μl/well) and plates were counted using a Packard Top-Count for 1 min/well. Data were analyzed using the sigmoidal dose-response curve fitting functions in GraphPad PRISM v. 3.0, or an in-house function for non-linear, sigmoidal dose-response curve-fitting.
μ-Opioid Receptor Functional Data: μ GTP EC50 is the concentration of a compound providing 50% of the maximal response for the compound at a μ-opioid receptor.
μ GTP Emax (%) is the maximal effect elicited by a compound relative to the effect elicited by DAMGO, a standard μ agonist. Generally, the μ GTP Emax (%) value measures the efficacy of a compound to treat or prevent pain or other Conditions.
as §4

SMILES	EC50 (κ-opioid receptor [1]) [nM]	Emax (κ-opioid receptor [1]) [%]	EC50 (μ-opioid receptor [2]) [nM]	Ki (κ-opioid receptor [3]) [nM]	Ki (μ-opioid receptor [4]) [nM]	Emax (μ-opioid receptor [2]) [%]	EC50 (κ-opioid receptor [5]) [nM]	Emax (κ-opioid receptor [5]; relative to U69,593, U-2 OS cells) [%]	EC50 (μ-opioid receptor [6]) [nM]	Emax (μ-opioid receptor [6]; relative to DAMGO, U-2 OS cells) [%]
NC(=O)c1cc2c([nH]c1=O)C[C@]13CCN(CC4CC4)[C@H](Cc4ccc(O)cc41)[C@@H]3C2 [Compound 7, (6R,6aR,12aS)-15-(cyclopropylmethyl)-2-hydroxy-10-oxo-6,6a,7,10,11,12-hexahydro-5H-6,12a-(epiminoethano)naphtho[2,1-g]quinoline-9-carboxamide]	33.9 ± 3.73	31.3 ± 3.18	> 20000	0.19 ± 0.04	4.55 ± 1.26	–	–	–	–	–
NC(=O)[C@H](Cc1ccccc1)NC(=O)c1cc2c([nH]c1=O)C[C@]13CCN(CC4CC4)[C@H](Cc4ccc(O)cc41)[C@@H]3C2 [Compound 23, (6R,6aR,12aS)—N—((S)-1-amino-1-oxo-3-phenylpropan-2-yl)-15-(cyclopropylmethyl)-2-hydroxy-10-oxo-6,6a,7,10,11,12-hexahydro-5H-6,12a-(epiminoethano)naphtho[2,1-g]quinoline-9-carboxamide]	8.35 ± 2.25	25.7 ± 4.18	3.19 ± 0.46	0.31 ± 0.05	1.86 ± 0.65	41.3 ± 5.04	–	–	–	–
CC(C)C[C@H](NC(=O)c1cc2c([nH]c1=O)C[C@]13CCN(CC4CC4)[C@H](Cc4ccc(O)cc41)[C@@H]3C2)C(N)=O [Compound 24, (6R,6aR,12aS)—N—((S)-1-amino-4-methyl-1-oxopentan-2-yl)-15-(cyclopropylmethyl)-2-hydroxy-10-oxo-6,6a,7,10,11,12-hexahydro-5H-6,12a-(epiminoethano)naphtho[2,1-g]quinoline-9-carboxamide]	2.54 ± 0.55	23 ± 2.04	5.2 ± 1.35	0.96 ± 0.1	3.95 ± 1.84	37 ± 7.02	–	–	–	–
NC(=O)[C@@H]1CCCN1C(=O)c1cc2c([nH]c1=O)C[C@]13CCN(CC4CC4)[C@H](Cc4ccc(O)cc41)[C@@H]3C2 [Compound 25, (S)-1-((6R,6aR,12aS)-15-(cyclopropylmethyl)-2-hydroxy-10-oxo-6,6a,7,10,11,12-hexahydro-5H-6,12a-(epiminoethano)naphtho[2,1-g]quinoline-9-carbonyl)pyrrolidine-2-carboxamide]	4.42 ± 0.85	44.7 ± 2.73	4.87 ± 0.52	0.32 ± 0.06	0.41 ± 0.05	29.3 ± 1.45	–	–	–	–
NC(=O)C[C@H](NC(=O)c1cc2c([nH]c1=O)C[C@]13CCN(CC4CC4)[C@H](Cc4ccc(O)cc41)[C@@H]3C2)C(N)=O [Compound 26]	8.87 ± 1.35	39 ± 2.08	7.54 ± 1.97	0.86 ± 0.23	0.71 ± 0.11	38 ± 1.15	–	–	–	–
COC(=O)c1cc2c([nH]c1=O)C[C@]13CCN(Cc4ccccc4)[C@H](Cc4ccc(OC)cc41)[C@]3(O)C2 [Compound 30, (6R,6aS,12aR)-methyl 15-benzyl-6a-hydroxy-2-methoxy-10-oxo-6,6a,7,10,11,12-hexahydro-5H-6,12a-(epiminoethano)naphtho[2,1-g]quinoline-9-carboxylate]	–	–	–	599 ± 90	3940 ± 860	–	> 20000	1	–	–
COc1ccc2c(c1)[C@]13CCN(Cc4ccccc4)[C@H](C2)[C@]1(O)Cc1cc(C(N)=O)c(=O)[nH]c1C3 [Compound 31, (6R,6aS,12aR)-15-benzyl-6a-hydroxy-2-methoxy-10-oxo-6,6a,7,10,11,12-hexahydro-5H-6,12a-(epiminoethano)naphtho[2,1-g]quinoline-9-carboxamide]	–	–	–	1580 ± 308	5590 ± 696	–	–	–	> 20000	10.7 ± 5.21
